Like-named read-outs stand apart in the source and are kept apart here.
Legend:
[1] = system: HeLa cells; assay: EdU cell proliferation assay; type: cell-based, human; conditions: 25 or 50 nM; 24 h
Experimental: HeLa cells were seeded in a 6-well plate and, after a 24 h incubation, were treated with the desired compounds as indicated in the Biological Results and Discussion section. Cells were re-incubated for one day and then labeled with EdU (10 μM) for 3 h under cell culture conditions. Cells were harvested by centrifugation before proceeding with the fixation step using 3.7% formaldehyde. Next, permeabilization with 0.5% Triton X-100 was performed. The reaction cocktail was prepared and added to each well (100 μL/well) following the manufacturer’s instructions (EdU-Click 488, base click, Sigma-Aldrich. Milano Italy), and the plate was incubated at room temperature for 30 min in the dark. Cells were washed 2 times with phosphate-buffered saline (PBS) before reading samples with a Beckman Coulter Cytomics FC500 instrument (λex/λem = 496/516 nm).

[2] = system: HeLa cells; assay: ROS production (H2DCFDA); type: cell-based, human; conditions: 10, 50 or 100 nM; 24 h
Experimental: The mitochondrial potential was evaluated in HeLa cells by flow cytometry using the cell membrane permeable cationic dye 5,5′,6,6′-tetrachloro-1,1′,3,3′-tetraethyl-imidacarbocyanine iodide (JC-1) (Molecular Probes) as described previously. The production of ROS was measured in HeLa cells by flow cytometry using 2′,7′-dichlorodihydrofluorescein diacetate (H2DCFDA) (Molecular Probes) as described previously.

[3] = system: Bovine brain tubulin; assay: Inhibition of tubulin polymerization; type: biochemical
Experimental: (§1) Bovine brain tubulin was purified as described previously. To evaluate the effects of the compounds on tubulin assembly in vitro [35], varying concentrations were preincubated with 10 μM tubulin in 0.8 M monosodium glutamate (pH 6.6) at 30 °C and the reaction mixtures then cooled to 0 °C. After addition of GTP, the mixtures were transferred to 0 °C cuvettes in Beckman Coulter (Brea, CA, USA) DU-7400/DU-7500 recording spectrophotometers equipped with electronic temperature controllers and warmed to 30 °C, and the assembly of tubulin was observed turbidimetrically. […] Inhibition of colchicine binding to tubulin was measured as described before, except that the reaction mixtures contained 0.5 μM tubulin and 5 μM each of [^3H]colchicine and test compound. Only one DEAE-cellulose filter was used per sample, and filtration was by gravity.

[4] = system: PBL stimulated with PHA; assay: Cytotoxicity in human PBLs stimulated with PHA; type: cell-based; conditions: 72 h, read-out: IC50 PBLPHA
Excerpt: Human PBLs were obtained from healthy donors by separation on a Lymphoprep^TM (Serumwerk Bernburg AG) gradient and were used for the evaluation of the cytotoxic potential of compounds under study in normal human cells. Buffy coats were obtained from the Blood Transfusion Service, Azienda Ospedaliera of Padova and provided at this institution for research purposes without identifier. The samples were not obtained specifically for this study, and for this reason ethical approval was not required. Informed consent was obtained from blood donors according to Italian law no. 219 (21 October 2005). Data were treated by the Blood Transfusion Service according to Italian law on personal data management “Codice in materia di protezione dati personali” (Testo Unico D.L. Giugno 30, 2003 196).
After extensive washing with saline solution (BioConcept, Hank’s Buffered Saline Solution), quiescent PBLs were resuspended (1.0 × 10^6 cells/mL) in RPMI-1640 medium supplemented with 10% fetal bovine serum. Cytotoxicity evaluations were conducted also in cultures of proliferating PBLs, stimulated with […] PHA (Irvine Scientific). Both resting and proliferating lymphocytes were seeded in 96-well plates and maintained overnight at 37 °C in a humidified 5% CO2 incubator. Serial (5-fold) dilutions of the tested compounds were added, and viability was determined 72 h later by the resazurin viability assay as described above.

[5] = system: Bovine brain tubulin; assay: Inhibition of [3H]colchicine binding to tubulin; conditions: tubulin 0.5 µM, [3H]colchicine 5 µM, compound 5 µM
Experimental: as §1

[6] = system: HeLa cells; assay: Scratch-migration assay; type: cell-based, human; conditions: 0.625–10 nM; 24 and 48 h
Experimental: HeLa cells were plated at 100,000 cells per well in a 6-well plate and incubated at 37 °C for 24 h. The day after seeding, cells were nearly confluent, so the sheet of cells was gently wounded through the horizontal and vertical axes using a micropipette tip. Cells were rinsed twice with PBS solution to remove cell debris; next, they were treated with different sublethal concentrations of compound 8q. At different time points, four images per experimental condition were captured using a stereomicroscope at 10X magnification. The distance between the two edges of the wound area was quantified with ImageJ software.

[7] = system: HeLa; assay: Antiproliferative assay (resazurin, 72 h); type: cell-based, human; conditions: Table 2, mean ± SE
Outline: (§2)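 Resazurin read-out (3–4 h, fluorescence ex 535 nm/em 600 nm) after 72 h of compound exposure at 37 °C, 5% CO2. Media: RPMI-1640 for HT-29, DMEM for the other three lines, each plus 10% FBS. Top concentration 10 μM with fivefold steps, in triplicate.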

[8] = system: MDA-MB-231; assay: Antiproliferative assay (resazurin, 72 h); type: cell-based, human; conditions: Table 2; mean ± SE; 72 h
Outline: as §2

[9] = system: A549; assay: Antiproliferative assay (resazurin, 72 h); type: cell-based, human; conditions: Table 2, mean ± SE
Outline: as §2

[10] = system: Jurkat; assay: Antiproliferative assay (resazurin, 72 h); type: cell-based, human; conditions: Table 2; mean ± SE; 72 h
Outline: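 Compounds dissolved in DMSO as 10 mM stocks were applied to seeded Jurkat cells using 5-fold serial dilutions from 10 μM, with each condition run in triplicate. Following 72 h incubation, 10 μL of 100 μg/mL resazurin was added for 3–4 h, and fluorescence was measured at 535 nm excitation and 600 nm emission.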

[11] = system: HT-29; assay: Antiproliferative assay (resazurin, 72 h); type: cell-based, human; conditions: Table 2; mean ± SE; 72 h
Outline: as §2

## Cc1cc(Nc2ccc(F)cc2)n2nc(NCCCc3ccccc3)nc2n1 [Compound 8q]
[1]
  EdU incorporation / cell proliferation: effective in reducing HeLa cell proliferation
[2]
  ROS production: significantly increased ROS production in a dose-dependent manner
[3]
  fold more potent than CA-4, tubulin polymerization: about 2 fold
[3]; read-out: IC50 tubulin polymerization
  IC50: 520 nM
[3]; tubulin at 10 μM, read-out: Tubulin Assembly IC50 ± SD
  IC50: 390 ± 20 nM
[4]
  IC50: > 10000 nM
[5]
  Colchicine Binding % Inhibition ± SD: 88 ± 0.8%
[6]
  cell migration / wound closure: significantly arrested the movement of cells, preventing wound closure
[7]
  IC50: 29 nM
[8]
  IC50: 62 ± 30 nM
[9]
  IC50: 130 ± 90 nM
[10]
  IC50: 150 ± 20 nM
[11]
  IC50: 49 ± 10 nM

Source: PMC9230136 (Pharmaceutics, 2022)
